Test results from patent publication US20240383905A1, “FGFR INHIBITORS AND METHODS OF USE THEREOF” (3H PHARMACEUTICALS CO., LTD., priority 2021, published 2024).

How the values were obtained:
FGFR2 = molecular target: T1, FGFR2 (Homo sapiens, UniProt P21802); assay: FGFR2 Biochemical Caliper Assay (KinEASE-TK kit); conditions: 0.07 nM FGFR2; compound incubated with protein 10 min, reaction 45 min at RT; read-out: FGFR2 Cliper IC50
T1 construct: purchased Carna 08-134
Description: Compounds of the present invention were tested in a FGFR1, FGFR2, and FGFR3 Biochemical Caliper Assay.
(§1) Enzyme activity was monitored using KinEASE-TK kit (CisBio, Cat.No. 62TK0PEC) according to manufacturer's instructions. […] Final enzyme concentration was 0.2 nM for FGFR1 and FGFR3, 0.07 nM for FGFR2. Compounds were prepared in 10 mM DMSO and serially diluted into 10 concentrations by 3-fold dilution. Prior to the initiation of the reaction by adding TK-substrate/ATP mixture, the compounds were incubated with protein for 10 min at RT. […] Plates were quenched by adding TK-antibody-Cryptate and Sa-XL665 mixture. After 60 min in the stop solution, read the signal on microplate reader (Molecular Devices, i3x), excitation of 320 nm and emission of 615 nm and 665 nm with a […]. IC50 values were calculated using Prism 7 (GraphPad).

FGFR1 = molecular target: T2, FGFR1 (Homo sapiens, UniProt P11362); assay: FGFR1 Biochemical Caliper Assay (KinEASE-TK kit); conditions: ratio FGFR1/FGFR2 of the biochemical assay
T2 construct: purchased Carna 08-133
Description: as §1, with “Compounds of the present invention were tested in a FGFR1, FGFR2, and FGFR3 Biochemical Caliper Assay. Enzyme” for “Enzyme”

FGFR3 = molecular target: T3, FGFR3 (Homo sapiens, UniProt P22607); assay: FGFR3 Biochemical Caliper Assay (KinEASE-TK kit); conditions: ratio FGFR3/FGFR2 of the biochemical assay
T3 construct: purchased Carna 08-135
Description: as §1, with “Compounds of the present invention were tested in a FGFR1, FGFR2, and FGFR3 Biochemical Caliper Assay. Enzyme” for “Enzyme”

SNU16 cells = assay: SNU16 Cancer Cell Line Proliferation Assay (CellTiter-Glo); type: cell-based; conditions: Homo sapiens, SNU-16, 72 h
Description: Compounds of the present invention were also tested in a SNU16 Cancer Cell Line Proliferation Assay.
SNU16 cells were plated in 96-well clear bottom/white plate(Costar, Cat.No. 3610) at 5000 cells/well in 100 μl medium. Test compounds were prepared in a 10 mM DMSO stock solution and serially diluted into 9 concentrations by 3-fold dilution. 0.5 μl of each concentration of compound was added into the cell culture plates and DMSO as a control. The plates were incubated for 72 h at 37° C. and 5% CO2 incubator. 50 μl CellTiter-Glo reagent (Promega, G7572) was added into each well and then the plates were shaken gently for 10 min at room temperature. Luminescence was read on microplate reader (Molecular Devices, i3x), IC50 values were calculated using Prism 7 (GraphPad).

T1 sequence (P21802 22-821): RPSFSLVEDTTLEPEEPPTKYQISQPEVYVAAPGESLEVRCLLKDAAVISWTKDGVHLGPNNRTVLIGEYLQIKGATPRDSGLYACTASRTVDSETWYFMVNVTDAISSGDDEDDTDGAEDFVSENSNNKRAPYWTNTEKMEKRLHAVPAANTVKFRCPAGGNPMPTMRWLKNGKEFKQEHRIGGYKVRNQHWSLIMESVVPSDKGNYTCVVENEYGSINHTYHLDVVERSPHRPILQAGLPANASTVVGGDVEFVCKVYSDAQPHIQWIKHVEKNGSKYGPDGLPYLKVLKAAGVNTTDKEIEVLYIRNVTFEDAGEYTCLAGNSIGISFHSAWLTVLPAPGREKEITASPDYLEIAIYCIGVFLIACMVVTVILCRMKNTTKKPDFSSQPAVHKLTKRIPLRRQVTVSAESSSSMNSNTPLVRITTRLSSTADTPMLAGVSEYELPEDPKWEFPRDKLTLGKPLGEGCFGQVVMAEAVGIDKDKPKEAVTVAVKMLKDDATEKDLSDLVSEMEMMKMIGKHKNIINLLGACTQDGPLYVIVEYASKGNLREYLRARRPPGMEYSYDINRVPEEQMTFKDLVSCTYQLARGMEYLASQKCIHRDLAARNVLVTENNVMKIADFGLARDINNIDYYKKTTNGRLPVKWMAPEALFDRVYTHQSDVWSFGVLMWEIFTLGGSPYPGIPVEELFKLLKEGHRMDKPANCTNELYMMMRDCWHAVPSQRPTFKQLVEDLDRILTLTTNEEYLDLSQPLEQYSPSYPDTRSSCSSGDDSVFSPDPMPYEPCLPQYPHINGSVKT
T3 sequence (P22607 23-806): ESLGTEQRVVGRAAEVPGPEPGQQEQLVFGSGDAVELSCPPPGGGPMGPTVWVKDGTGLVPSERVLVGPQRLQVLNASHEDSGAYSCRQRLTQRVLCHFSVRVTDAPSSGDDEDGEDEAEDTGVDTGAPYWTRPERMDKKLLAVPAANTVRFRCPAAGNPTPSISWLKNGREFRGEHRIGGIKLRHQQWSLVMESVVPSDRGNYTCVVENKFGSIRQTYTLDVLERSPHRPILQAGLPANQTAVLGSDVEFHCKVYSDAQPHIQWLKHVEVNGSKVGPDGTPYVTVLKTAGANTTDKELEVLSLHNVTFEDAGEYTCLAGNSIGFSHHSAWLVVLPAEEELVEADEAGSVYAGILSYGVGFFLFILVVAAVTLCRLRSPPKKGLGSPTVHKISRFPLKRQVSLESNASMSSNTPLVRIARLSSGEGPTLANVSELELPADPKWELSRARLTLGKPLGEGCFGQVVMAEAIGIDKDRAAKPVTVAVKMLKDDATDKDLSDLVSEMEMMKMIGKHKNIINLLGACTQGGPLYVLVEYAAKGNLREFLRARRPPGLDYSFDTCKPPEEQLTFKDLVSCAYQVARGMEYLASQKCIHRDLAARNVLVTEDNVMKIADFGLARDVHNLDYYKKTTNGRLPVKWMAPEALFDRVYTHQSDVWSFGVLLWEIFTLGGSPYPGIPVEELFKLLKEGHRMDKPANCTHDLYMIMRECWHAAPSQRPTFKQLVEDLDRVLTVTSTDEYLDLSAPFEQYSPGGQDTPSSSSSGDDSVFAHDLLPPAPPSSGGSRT
T2 sequence (P11362 22-822): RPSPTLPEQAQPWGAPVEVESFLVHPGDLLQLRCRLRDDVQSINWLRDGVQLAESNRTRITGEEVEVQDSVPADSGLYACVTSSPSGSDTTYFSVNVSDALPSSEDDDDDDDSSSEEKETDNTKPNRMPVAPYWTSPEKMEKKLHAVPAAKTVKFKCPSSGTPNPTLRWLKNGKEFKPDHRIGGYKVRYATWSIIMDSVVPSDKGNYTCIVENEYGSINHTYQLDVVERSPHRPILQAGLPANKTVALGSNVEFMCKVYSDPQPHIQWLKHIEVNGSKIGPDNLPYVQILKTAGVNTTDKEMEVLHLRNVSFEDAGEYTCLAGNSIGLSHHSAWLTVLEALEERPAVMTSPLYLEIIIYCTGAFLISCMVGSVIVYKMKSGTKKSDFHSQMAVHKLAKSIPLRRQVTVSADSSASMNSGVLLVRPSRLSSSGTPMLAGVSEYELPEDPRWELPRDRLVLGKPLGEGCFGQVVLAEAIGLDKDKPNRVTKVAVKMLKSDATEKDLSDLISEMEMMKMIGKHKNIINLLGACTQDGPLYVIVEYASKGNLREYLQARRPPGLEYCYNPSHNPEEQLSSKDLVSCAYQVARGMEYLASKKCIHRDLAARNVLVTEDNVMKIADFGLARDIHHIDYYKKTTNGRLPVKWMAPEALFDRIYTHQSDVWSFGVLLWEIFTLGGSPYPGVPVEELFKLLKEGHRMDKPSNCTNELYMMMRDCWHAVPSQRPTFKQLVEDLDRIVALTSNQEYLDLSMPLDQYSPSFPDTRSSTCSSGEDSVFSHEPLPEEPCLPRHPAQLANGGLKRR

Row | SMILES | IC50 (FGFR2) | Selectivity FGFR1/FGFR2 (FGFR1) | Selectivity FGFR3/FGFR2 (FGFR3) | IC50 (SNU16 cells)
1 | C=C(F)C(=O)Nc1ccc(-n2nc3c(=O)[nH]nc(N)c3c2-c2ccc(C(=O)NC3CCC3)c(OC)c2)cc1 [Compound 137, 4-(4-amino-2-(4-(2-fluoroacrylamido)phe-nyl)-7-oxo-6,7-dihydro-2H-pyrazolo[3,4-d]pyridazin-3-yl)-N-cyclobutyl-2-methoxybenzamide] | 5 to 10 nM | A+ (Selectivity of FGFR1/FGFR2 greater or equal to 500) | A+ (Selectivity of FGFR3/FGFR2 greater or equal to 150) | 10 to 50 nM
2 | C=CC(=O)Nc1ccc(-c2nn3ncnc(N)c3c2-c2ccc(C(=O)NCC(F)(F)F)c(OC)c2)cn1 [Compound 90, 4-(6-(6-acrylamidopyridin-3-yl)-4-aminopyrazolo[5,1-f] [1,2,4]triazin-5-yl)-2-methoxy-N-(2,2,2-trifluoroethyl)benzamide] | < 5 nM | A (Selectivity of FGFR1/FGFR2 less than 500 but greater than or equal to 300) | B (Selectivity of FGFR3/FGFR2 less than 100 but greater than or equal to 25) | 10 to 50 nM
3 | C=CC(=O)Nc1ccc(-c2nn3ncnc(N)c3c2-c2ccc(C(=O)NC3CCCC3)c(OC)c2)cc1 [Compound 55, 4-(6-(4-acrylamidophenyl)-4-aminopyrazolo[5,1-f] [1,2,4]triazin-5-yl)-N-cyclopentyl-2-methoxybenzamide] | < 5 nM | A+ (Selectivity of FGFR1/FGFR2 greater or equal to 500) | A (Selectivity of FGFR3/FGFR2 less than 150 but greater than or equal to 100) | ≤ 10 nM
4 | C=C(F)C(=O)Nc1ccc(-c2[nH]c3c(C#N)cnc(N)c3c2-c2ccc(C(=O)NC3CC3)c(OC)c2)c(F)c1 [Compound 267, 4-(4-amino-7-cyano-2-(2-fluoro-4-(2-fluoroacrylamido)phe-nyl)-1H-pyrrolo[3,2-c]pyridin-3-yl)-N-cyclopropyl-2-methoxybenzamide] | < 5 nM | B (Selectivity of FGFR1/FGFR2 less than 300 but greater than or equal to 200) | A+ (Selectivity of FGFR3/FGFR2 greater or equal to 150) | ≤ 10 nM
5 | C=CC(=O)Nc1ccc(-c2c(-c3ccc(C(=O)NCC(F)F)c(OC)c3)c3c(N)ncc(C#N)c3n2C)cc1 [Compound 198, 4-(2-(4-acrylamidophenyl)-4-amino-7-cyano-1-methyl-1H-pyrrolo[3,2-c]pyridin-3-yl)-N-(2,2-difluoroethyl)-2-methoxybenzamide] | < 5 nM | A (Selectivity of FGFR1/FGFR2 less than 500 but greater than or equal to 300) | A+ (Selectivity of FGFR3/FGFR2 greater or equal to 150) | ≤ 10 nM
6 | C=C(F)C(=O)Nc1ccc(-c2nn3ncnc(N)c3c2-c2ccc(C(=O)NCC(F)F)c(OC)c2)c(F)c1 [Compound 289] | > 10 nM | C (Selectivity of FGFR1/FGFR2 less than 200 but greater than or equal to 100) | B (Selectivity of FGFR3/FGFR2 less than 100 but greater than or equal to 25) | ≤ 10 nM
7 | C=C(F)C(=O)Nc1ccc(-c2c(-c3ccc(C(=O)NC4CC4)c(OC)c3)c3c(N)ncc(C#N)c3n2C)c(OC)c1 [Compound 171, 4-(4-amino-7-cyano-2-(4-(2-fluoroacrylamido)-2-methoxyphenyl)-1-methyl-1H-pyrrolo[3,2-c]pyridin-3-yl)-N-cyclopropyl-2-methoxybenzamide] | < 5 nM | C (Selectivity of FGFR1/FGFR2 less than 200 but greater than or equal to 100) | B (Selectivity of FGFR3/FGFR2 less than 100 but greater than or equal to 25) | ≤ 10 nM
8 | C=CC(=O)Nc1ccc(-c2c(-c3ccc(C(=O)NC4CC4)c(OC)c3)c3c(N)ncc(C#N)c3n2CCF)cc1 [Compound 236, 4-(2-(4-acrylamidophenyl)-4-amino-7-cyano-1-(2-fluoroethyl)-1H-pyrrolo[3,2-c]pyridin-3-yl)-N-cyclopropyl-2-methoxybenzamide] | < 5 nM | A+ (Selectivity of FGFR1/FGFR2 greater or equal to 500) | A (Selectivity of FGFR3/FGFR2 less than 150 but greater than or equal to 100) | ≤ 10 nM
9 | C=C(F)C(=O)Nc1ccc(-c2c(-c3ccc(C(=O)NC4CC4)c(OC)c3)c3c(N)ncc(C#N)c3n2C)cc1 [Compound 104, 4-(4-amino-7-cyano-2-(4-(2-fluoroacrylamido)phenyl)-1-methyl-1H-pyrrolo[3,2-c]pyridin-3-yl)-N-cyclopropyl-2-methoxybenzamide] | 5 to 10 nM | A+ (Selectivity of FGFR1/FGFR2 greater or equal to 500) | A+ (Selectivity of FGFR3/FGFR2 greater or equal to 150) | ≤ 10 nM
10 | C=C(C)C(=O)Nc1ccc(-c2c(-c3ccc(Oc4nccc(C)n4)cc3)c3c(N)ncc(C#N)c3n2C)c(Cl)c1 [Compound 474, N-(4-(4-amino-7-cyano-1-methyl-3-(4-((4-methylpyrimidin-2-yl)oxy)phenyl)-1H-pyrrolo[3,2-c]pyridin-2-yl)-3-chlorophenyl)methacrylamide] | 5 to 10 nM | A+ (Selectivity of FGFR1/FGFR2 greater or equal to 500) | A+ (Selectivity of FGFR3/FGFR2 greater or equal to 150) | ≤ 10 nM
11 | C=C(F)C(=O)Nc1ccc(-c2nn3ncnc(N)c3c2-c2ccc(C(=O)NCC(C)(F)F)c(OC)c2)cc1 [Compound 362, 4-(4-amino-6-(4-(2-fluoroacrylamido)phe-nyl)pyrazolo[5,1-f][1,2,4]triazin-5-yl)-N-(2,2-difluoropropyl)-2-methoxybenzamide] | > 10 nM | A+ (Selectivity of FGFR1/FGFR2 greater or equal to 500) | A (Selectivity of FGFR3/FGFR2 less than 150 but greater than or equal to 100) | 
12 | C=C(F)C(=O)Nc1ccc(-c2[nH]c3c(C#N)cnc(N)c3c2-c2ccc(C(=O)NC3CC3(F)F)c(OC)c2)cc1 (stereo not shown) [Compound 320, 4-(4-amino-7-cyano-2-(4-(2-fluoroacrylamido)phe-nyl)-1H-pyrrolo[3,2-c]pyridin-3-yl)-N-(2,2-difluorocyclopropyl)-2-methoxybenzamide] | < 5 nM | C (Selectivity of FGFR1/FGFR2 less than 200 but greater than or equal to 100) | A (Selectivity of FGFR3/FGFR2 less than 150 but greater than or equal to 100) | 
13 | C=CC(=O)Nc1ccc(-c2c(-c3ccc(C(=O)NC4CC4)c(OC)c3)c3c(N)ncc(C#N)c3n2C2CC2)cc1 [Compound 359, 4-(2-(4-acrylamidophenyl)-4-amino-7-cyano-1-cyclopropyl-1H-pyrrolo[3,2-c]pyridin-3-yl)-N-cyclopropyl-2-methoxybenzamide] | > 10 nM | A+ (Selectivity of FGFR1/FGFR2 greater or equal to 500) | B (Selectivity of FGFR3/FGFR2 less than 100 but greater than or equal to 25) | 
14 | C=CC(=O)Nc1ccc(-c2nn3ncnc(N)c3c2-c2ccc(Oc3ncc(C)cn3)c(F)c2)cc1 [Compound 376, N-(4-(4-amino-5-(3-fluoro-4-((5-methylpyrimidin-2-yl)oxy)phenyl)pyrazolo [5,1-f][1,2,4]triazin-6-yl)phenyl)acrylamide] | > 10 nM | A+ (Selectivity of FGFR1/FGFR2 greater or equal to 500) | A+ (Selectivity of FGFR3/FGFR2 greater or equal to 150) | 
15 | C=CC(=O)Nc1ccc(-c2nn3ncnc(N)c3c2-c2ccc(C(=O)NC3(C#N)CC3)c(OC)c2)cc1 [Compound 268, 4-(6-(4-acrylamidophenyl)-4-aminopyrazolo[5,1-f][1,2,4]triazin-5-yl)-N-(1-cyanocyclopropyl)-2-methoxybenzamide] | 5 to 10 nM | C (Selectivity of FGFR1/FGFR2 less than 200 but greater than or equal to 100) | A+ (Selectivity of FGFR3/FGFR2 greater or equal to 150) | 
